Bridge positions count the residues as written; N and C are the ends. Ends that are not written are not given here.
Tests used:
[1] = tested on: wild‐type (Gprc6a +/+) and global knock out (Gprc6a −/−) mice; experiment: Serum FGF-21 (ELISA) after intraperitoneal injection in mice; format: in vivo, mouse; details: 2 nmol/g IP, 24 h, n ≥ 5
Description: (§1) 8‐week‐old wild‐type (Gprc6a ^ +/+ ) and global knock out (Gprc6a ^ −/− ) mice were injected intraperitoneally with Ocn 20–29 (2 nmol/g body weight), or vehicle (saline; 10 μL/g body weight). Serum was collected at 24 h after intraperitoneal injection. Blood glucose levels were measured by using blood glucose strips and the Accu‐Check glucometer as described.[7], [31] A mouse IL‐6 ELISA Kit was purchased from Invitrogen (Waltham, MA, USA). Rat/Mouse FGF‐21ELISA Kit was obtained from Millipore Sigma (Burlington, MA, USA).
(§2) The Gprc6a ^ −/− mouse model was created by replacing exon 2 of the GPRC6A gene with the hygromycin resistance gene, as described previously.[32] Mice were maintained and used in accordance with recommendations as described (National Research Council 1985; Guide for the Care and Use of Laboratory Animals Department of Health and Human Services Publication NIH 86–23, Institute on Laboratory Animal Resources, Rockville, MD) and following guidelines established by the University of Tennessee Health Science Center Institutional Animal Care and Use Committee. The animal study protocol was approved by the institutional review boards at University of Tennessee Health Science Center Institutional Animal Care and Use Committee.

[2] = tested on: wild‐type (Gprc6a +/+) and global knock out (Gprc6a −/−) mice; experiment: Serum IL-6 (ELISA) after intraperitoneal injection in mice; format: in vivo, mouse; details: 2 nmol/g IP, 24 h, n ≥ 5
Description: as §1, §2

[3] = target: T1, K352E/H355P hGPRC6A (Homo sapiens, UniProt Q5T6X5, H355P/K352E); experiment: ERK activation in HEK-293 cells transfected with K352E/H355P hGPRC6A; format: cell-based; details: for ERK activation by Ocn small fragments: K352E/H355P double mutant, fragment at 20 nM, Figure 6D
T1 construct: expressed in transfected cells; host or cells: HEK-293, pcDNA3
T1 sequence (Q5T6X5 19-926 K352E/H355P): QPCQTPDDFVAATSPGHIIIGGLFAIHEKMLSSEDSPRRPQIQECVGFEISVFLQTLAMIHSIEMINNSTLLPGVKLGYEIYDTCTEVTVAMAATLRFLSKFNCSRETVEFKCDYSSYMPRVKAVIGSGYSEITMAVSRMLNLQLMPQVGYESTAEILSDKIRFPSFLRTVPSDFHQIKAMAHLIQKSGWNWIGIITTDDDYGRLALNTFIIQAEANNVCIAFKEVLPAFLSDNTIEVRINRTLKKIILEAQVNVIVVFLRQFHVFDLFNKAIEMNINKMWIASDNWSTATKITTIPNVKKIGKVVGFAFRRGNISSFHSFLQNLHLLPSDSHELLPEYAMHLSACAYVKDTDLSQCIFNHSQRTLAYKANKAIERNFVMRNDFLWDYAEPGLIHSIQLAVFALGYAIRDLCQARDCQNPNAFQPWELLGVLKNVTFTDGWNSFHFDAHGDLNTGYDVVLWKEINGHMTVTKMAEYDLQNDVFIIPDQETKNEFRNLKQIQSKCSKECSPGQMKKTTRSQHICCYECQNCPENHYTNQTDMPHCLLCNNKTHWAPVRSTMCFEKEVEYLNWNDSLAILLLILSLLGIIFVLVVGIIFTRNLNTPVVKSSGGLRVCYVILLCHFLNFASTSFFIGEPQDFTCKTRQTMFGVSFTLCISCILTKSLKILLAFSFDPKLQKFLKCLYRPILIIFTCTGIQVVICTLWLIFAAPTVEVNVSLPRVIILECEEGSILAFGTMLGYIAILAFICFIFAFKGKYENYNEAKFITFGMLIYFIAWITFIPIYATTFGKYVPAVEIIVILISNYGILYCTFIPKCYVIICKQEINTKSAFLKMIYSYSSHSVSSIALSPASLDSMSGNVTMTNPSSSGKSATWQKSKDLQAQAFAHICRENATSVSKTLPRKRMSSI
Description: (§3) All culture reagents were from Invitrogen (Waltham, MA, USA). Human embryonic kidney HEK‐293 cells were obtained from American Type Culture Collection and cultured in DMEM medium supplemented with 10% fetal bovine serum and 1% Penicillin/Streptomycin (P/S). Briefly, HEK‐293 cells transfected with/without human GPRC6A isoforms cDNA plasmids were starved by overnight incubation in serum‐free DMEM/F12 containing 0.1% bovine serum albumin (BSA) and stimulated with various ligands at different doses. ERK activation was assessed 20 min after treatment by using ERK1/2 (phospho‐T203/Y204) ELISA Kit (Invitrogen; Waltham, MA, USA) corrected for the amount of total ERK using ERK1/2 (Total) ELISA Kit (Invitrogen; Waltham, MA, USA) to measure ERK levels.
In‐vitro mutagenesis by PCR‐mediated recombination QuikChange II XL Site‐Directed Mutagenesis Kit (Agilent) was performed using the cDNA of human GPRC6A cloned in the vector pcDNA3 (Invitrogen) as a template. The primer sets are as follows. K352E.sen: […]; K352E.antisen: […]; H355P.sen: […]; H355P.antisen: […]; K352E/H355P.sen: […]; and K352E/H355P.antisen: […]. All mutants were confirmed by sequencing.

[4] = tested on: GPRC6A isoforms 1, 2 and 3; experiment: GPRC6A signaling in GPRC6A isoforms (read-out not given); format: cell-based, human
Description: as §3
HEK‐293 transfected with human GPRC6A isoform cDNA plasmids cells (10^5 cells/well)[30] were cultured in 24‐well plates in DMEM supplemented with 10% fetal bovine serum and 1% penicillin/streptomycin (100 U/mL of penicillin and 100 μg/mL of streptomycin) for 48 h followed by 4 h incubation in DMEM/F12 containing 0.1% BSA and 0.5 mM IBMX to achieve quiescence and preventing cAMP degradation. […] Then, the reaction was stopped, and the cells lysed with 0.5 mL 0.1 N HCl. cAMP levels were measured by using Cyclic AMP EIA kit (Cayman Chemical; Ann Arbor, MA, USA) following the manufacture's protocol.

ERK activation by Ocn small fragments [3] | ERK phosphorylation, dose response of full-length Ocn, versus wild-type receptor ([3]; K352E/H355P mutant, Figure 6B) | Substance | Serum FGF-21 response ([1]; Gprc6a −/− mice) | Serum FGF-21 level versus vehicle ([1]; wild-type Gprc6a +/+ mice) | Serum IL-6 response ([2]; Gprc6a −/− mice) | Serum IL-6 level versus vehicle ([2]; wild-type Gprc6a +/+ mice) | Response of GPRC6A isoforms 2 and 3 ([4]; isoforms 2 and 3) | Activation of GPRC6A signaling in GPRC6A isoforms ([4]; all isoforms, including isoforms 2 and 3 with deletions in the VFT)
no response | – | REVCELNPDC (disulfide 4-10 (inferred)) [Ocn 20–29, synthesized human Ocn decapeptide fragment located in the middle of the protein] | lost | significant increase | lost | significant increase | diminished responses | –
partially activate | – | RFYGPV [Ocn 44–49, synthesized human Ocn C‐terminal hexapeptide] | – | – | – | – | – | activated GPRC6A signaling in all GPRC6A isoforms
– | significantly decreased | osteocalcin (YLYQWLGAPVPYPDPLEPRREVCELNPDCDELADHIGFQEAYRRFYGPV; not fully specified; ends and bridges not checked; UniProt P02818 52-100, looked up) [Ocn 1–49, full human Ocn (49 aa) synthesized by BioMatik; methods also describe decarboxylated Ocn purified from bovine tibial bone, reference compound] | – | – | – | – | – | –
